How the values were obtained:
Assay type in all cases: ADME
Settings in all cases: probe aminopyrine
[1] = tested on: cytochrome P450; assay: Inactivation of cytochrome P450 in rat liver microsomes assessed as inhibition of aminopyrine demethylation at 1 mM preincubated for 12 mins measured 5 mins after substrate addition by Nash reagent based colorimetry (reference value: 0%)
[2] = tested on: cytochrome P450; assay: Inactivation of cytochrome P450 in rat liver microsomes assessed as inhibition of aminopyrine demethylation at 0.1 mM preincubated for 12 mins measured 5 mins after substrate addition by Nash reagent based colorimetry (reference value: 0%)
[3] = tested on: cytochrome P450; assay: Inactivation of cytochrome P450 in rat liver microsomes assessed as inhibition of aminopyrine demethylation at 1 mM measured without preincubation by Nash reagent based colorimetry (reference value: 0%)
[4] = tested on: cytochrome P450; assay: Inactivation of cytochrome P450 in rat liver microsomes assessed as inhibition of aminopyrine demethylation at 1 mM measured without preincubation by Nash reagent based colorimetry in presence of flavoprotein amine oxidase alternate substrate-inhibitor methimazole (reference value: 0%)
[5] = tested on: cytochrome P450; assay: Inactivation of cytochrome P450 in rat liver microsomes assessed as inhibition of aminopyrine demethylation at 1 mM preincubated for 12 mins measured 5 mins after substrate addition by Nash reagent based colorimetry in absence of cofactor NADPH-generating system (reference value: 0%)
[6] = tested on: cytochrome P450; assay: (§1) Inactivation of cytochrome P450 in rat liver microsomes assessed as inhibition of aminopyrine demethylation at 1 mM preincubated for 12 mins measured 5 mins after substrate addition by Nash reagent based colorimetry in presence of GSH (reference value: 0%)
[7] = tested on: cytochrome P450; assay: Inactivation of cytochrome P450 in rat liver microsomes assessed as inhibition of aminopyrine demethylation at 1 mM measured without preincubation by Nash reagent based colorimetry in presence of GSH (reference value: 0%)
[8] = tested on: cytochrome P450; assay: Inactivation of cytochrome P450 in rat liver microsomes assessed as inhibition of aminopyrine demethylation at 1 mM preincubated for 12 mins measured 5 mins after substrate addition by Nash reagent based colorimetry in presence of CO/O2 (80:20) (reference value: 0%)
[9] = tested on: cytochrome P450; assay: as §1, with “flavoprotein amine oxidase alternate substrate-inhibitor methimazole” for “GSH”

SMILES | inhibition at 5 min, 1000 µM [1] [%] | other results
Clc1ccc(CNC2CC2)cc1 | 79 | 
C(CCNC1CC1)=C1c2ccccc2CCc2ccccc21 |  | inhibition at 5 min, 100 µM [2]: 92%
Cc1ccc(CNC(C)C)cc1 | 2 | 
CC(C)NCc1ccc(Br)cc1 | 27 | 
CC(C)NCc1ccc(Cl)cc1 | 25 | 
Cc1ccc(CNC2CC2)cc1 | 77 | 
c1ccc(CN2CCOCC2)cc1 | 34 | inhibition at 1000 µM [3]: 27%
COc1ccc(CNC(C)C)cc1 | 0 | 
CC(C)NCCC=C1c2ccccc2CCc2ccccc21 |  | inhibition at 5 min, 100 µM [2]: 55%
CC(C)NCc1ccccc1 | 9 | inhibition at 1000 µM [3]: 9%
COc1ccc(CNC2CC2)cc1 | 54 | 
c1ccc(CNC2CC2)cc1 | 61 | inhibition at 1000 µM [4]: 25%; inhibition at 5 min, 1000 µM [5]: 13%; inhibition at 5 min, 1000 µM [6]: 62%; inhibition at 1000 µM [7]: 17%; inhibition at 1000 µM [3]: 29%; inhibition at 5 min, 1000 µM [8]: 24%; inhibition at 5 min, 1000 µM [9]: 57%
Brc1ccc(CNC2CC2)cc1 | 79 | 
